Laboratory results from article PMC5218480 (PLoS ONE, 2017).

System: MV-4-11 cells
Assay: Gene expression microarray analysis (Affymetrix PrimeView) and GSEA
Assay type: cell-based, human
Design: RFU PODN (11730768_x_at) / Fold change /veh PODN (11730768_x_at) / RFU LINC00158 (11744669_a_at) / Fold change /veh LINC00158 (11744669_a_at) / RFU DUSP10 (11751237_a_at) / Fold change /veh DUSP10 (11751237_a_at) / RFU ID3 (11757404_x_at) / Fold change /veh ID3 (11757404_x_at) / RFU PLEKHG5 (11737974_s_at) / Fold change /veh PLEKHG5 (11737974_s_at) / RFU LRRC4B (11730491_at) / Fold change /veh LRRC4B (11730491_at) / RFU GIMAP4 (11747438_a_at) / Fold change /veh GIMAP4 (11747438_a_at) / RFU KRT8 (11758183_x_at) / Fold change /veh KRT8 (11758183_x_at) / RFU CNN1 (11734310_a_at) / Fold change /veh CNN1 (11734310_a_at) / RFU VPS37D (11726825_at) / Fold change /veh VPS37D (11726825_at) / RFU C10orf10 (11716522_x_at) / Fold change /veh C10orf10 (11716522_x_at) / RFU KIR2DL2 /// KIR2DL4 /// KIR2DL5A /// KIR2DL5B /// KIR2DS1 /// KIR2DS2 /// KIR2DS3 /// KIR2DS4 /// KIR3DL3 /// KIR3DL3 /// KIR3DS1 (11738374_at) / Fold change /veh KIR2DL2 /// KIR2DL4 /// KIR2DL5A /// KIR2DL5B /// KIR2DS1 /// KIR2DS2 /// KIR2DS3 /// KIR2DS4 /// KIR3DL3 /// KIR3DL3 /// KIR3DS1 (11738374_at) / RFU C1QL1 (11718748_at) / Fold change /veh C1QL1 (11718748_at) / RFU TMPRSS4 (11747572_a_at) / Fold change /veh TMPRSS4 (11747572_a_at) / RFU HAMP (11756126_x_at) / Fold change /veh HAMP (11756126_x_at) / RFU RNFT2 (11725882_a_at) / Fold change /veh RNFT2 (11725882_a_at) / RFU NR4A2 (11747474_a_at) / Fold change /veh NR4A2 (11747474_a_at) / RFU ABCC12 (11746883_a_at) / Fold change /veh ABCC12 (11746883_a_at) / RFU TMEM136 (11760407_x_at) / Fold change /veh TMEM136 (11760407_x_at) / RFU CLDN22 /// WWC2 (11732394_at) / Fold change /veh CLDN22 /// WWC2 (11732394_at) / RFU HLA-DPB1 (11760878_x_at) / Fold change /veh HLA-DPB1 (11760878_x_at) / RFU SPINT1 (11716480_a_at) / Fold change /veh SPINT1 (11716480_a_at) / RFU GAP43 (11754022_s_at) / Fold change /veh GAP43 (11754022_s_at) / RFU A4GNT (11735810_at) / Fold change /veh A4GNT (11735810_at) / RFU PRB3 (11715151_x_at) / Fold change /veh PRB3 (11715151_x_at) / RFU TUBB4B (11761932_at) / Fold change /veh TUBB4B (11761932_at) / RFU CAPN14 (11732068_a_at) / Fold change /veh CAPN14 (11732068_a_at) / RFU TMCC2 (11721928_a_at) / Fold change /veh TMCC2 (11721928_a_at) / RFU IRGQ (11745062_a_at) / Fold change /veh IRGQ (11745062_a_at) / RFU FAM174B (11720279_a_at) / Fold change /veh FAM174B (11720279_a_at) / RFU TMPRSS4 (11748680_a_at) / Fold change /veh TMPRSS4 (11748680_a_at) / RFU FAM212B (11763350_a_at) / Fold change /veh FAM212B (11763350_a_at) / RFU PLEKHG5 (11743358_a_at) / Fold change /veh PLEKHG5 (11743358_a_at) / RFU ZSCAN30 (11745921_a_at) / Fold change /veh ZSCAN30 (11745921_a_at) / RFU CMKLR1 (11741424_a_at) / Fold change /veh CMKLR1 (11741424_a_at) / RFU LOC101060620 /// MAPK8IP1 (11723275_at) / Fold change /veh LOC101060620 /// MAPK8IP1 (11723275_at) / RFU SPTSSB (11747773_x_at) / Fold change /veh SPTSSB (11747773_x_at) / RFU PRSS12 (11739890_at) / Fold change /veh PRSS12 (11739890_at) / RFU BIN1 (11741810_x_at) / Fold change /veh BIN1 (11741810_x_at) / RFU WNT11 (11732464_a_at) / Fold change /veh WNT11 (11732464_a_at) / RFU C10orf10 (11716521_a_at) / Fold change /veh C10orf10 (11716521_a_at) / RFU C5orf56 (11738089_at) / Fold change /veh C5orf56 (11738089_at) / RFU CYB561 (11721691_x_at) / Fold change /veh CYB561 (11721691_x_at) / RFU ANKRD19P (11752326_a_at) / Fold change /veh ANKRD19P (11752326_a_at) / RFU OR2T12 /// OR2T33 /// OR2T8 (11738714_s_at) / Fold change /veh OR2T12 /// OR2T33 /// OR2T8 (11738714_s_at) / RFU VCAN (11748164_a_at) / Fold change /veh VCAN (11748164_a_at) / RFU JSRP1 (11732532_at) / Fold change /veh JSRP1 (11732532_at) / RFU KRTAP10-11 (11738290_x_at) / Fold change /veh KRTAP10-11 (11738290_x_at) / RFU MYO3A (11730013_a_at) / Fold change /veh MYO3A (11730013_a_at) / RFU EBF3 (11725865_a_at) / Fold change /veh EBF3 (11725865_a_at) / RFU CAMK2N1 (11719241_x_at) / Fold change /veh CAMK2N1 (11719241_x_at) / RFU C5orf56 (11738088_a_at) / Fold change /veh C5orf56 (11738088_a_at) / RFU OLFML3 (11715873_a_at) / Fold change /veh OLFML3 (11715873_a_at) / RFU LOC100653217 /// NTM (11731650_a_at) / Fold change /veh LOC100653217 /// NTM (11731650_a_at) / RFU MAPK11 (11762145_a_at) / Fold change /veh MAPK11 (11762145_a_at) / RFU FIZ1 (11724087_x_at) / Fold change /veh FIZ1 (11724087_x_at) / RFU OASL (11726364_x_at) / Fold change /veh OASL (11726364_x_at) / RFU SOX15 (11748057_x_at) / Fold change /veh SOX15 (11748057_x_at) / RFU CD79A (11719716_a_at) / Fold change /veh CD79A (11719716_a_at) / RFU HIST1H1D (11736915_at) / Fold change /veh HIST1H1D (11736915_at) / RFU CASKIN2 (11723855_a_at) / Fold change /veh CASKIN2 (11723855_a_at) / RFU LOC730098 (11760151_x_at) / Fold change /veh LOC730098 (11760151_x_at) / RFU OR4N2 (11742367_at) / Fold change /veh OR4N2 (11742367_at) / RFU PRRT2 (11749266_a_at) / Fold change /veh PRRT2 (11749266_a_at) / RFU SNX32 (11753110_a_at) / Fold change /veh SNX32 (11753110_a_at) / RFU CDHR5 (11726645_a_at) / Fold change /veh CDHR5 (11726645_a_at) / RFU RCAN1 (11760418_a_at) / Fold change /veh RCAN1 (11760418_a_at) / RFU FAM167A (11723789_a_at) / Fold change /veh FAM167A (11723789_a_at) / RFU FAM26E (11764081_at) / Fold change /veh FAM26E (11764081_at) / RFU ISYNA1 (11749810_s_at) / Fold change /veh ISYNA1 (11749810_s_at) / RFU ACY1 (11761880_at) / Fold change /veh ACY1 (11761880_at) / RFU 11764098_at / Fold change /veh 11764098_at / RFU SAMD14 (11745864_x_at) / Fold change /veh SAMD14 (11745864_x_at) / RFU NPB (11741838_a_at) / Fold change /veh NPB (11741838_a_at) / RFU TMPRSS6 (11731388_a_at) / Fold change /veh TMPRSS6 (11731388_a_at) / RFU KRTAP10-2 (11738614_at) / Fold change /veh KRTAP10-2 (11738614_at) / RFU ARHGAP8 /// PRR5-ARHGAP8 (11727945_x_at) / Fold change /veh ARHGAP8 /// PRR5-ARHGAP8 (11727945_x_at) / RFU KRTAP5-7 /// NADSYN1 (11734609_at) / Fold change /veh KRTAP5-7 /// NADSYN1 (11734609_at) / RFU RASL12 (11751679_a_at) / Fold change /veh RASL12 (11751679_a_at) / RFU CDKN2B (11736163_a_at) / Fold change /veh CDKN2B (11736163_a_at) / RFU PRF1 (11729649_at) / Fold change /veh PRF1 (11729649_at) / RFU, ZNF638 /// ZNF638-IT1 / Fold change vs veh, ZNF638 /// ZNF638-IT1 / RFU, PANK3 / Fold change vs veh, PANK3 / RFU, SH3YL1 / Fold change vs veh, SH3YL1 / RFU, ZEB2 / Fold change vs veh, ZEB2 / RFU, NRIP1 / Fold change vs veh, NRIP1 / RFU, PTTG1IP / Fold change vs veh, PTTG1IP / RFU, CAPN2 / Fold change vs veh, CAPN2 / RFU, MED14 / Fold change vs veh, MED14 / RFU, SNORA58 / Fold change vs veh, SNORA58 / RFU, C1orf63 / Fold change vs veh, C1orf63 / RFU, LRRFIP1 / Fold change vs veh, LRRFIP1 / RFU, NDUFAF7 / Fold change vs veh, NDUFAF7 / RFU, SLC12A2 / Fold change vs veh, SLC12A2 / RFU, IBTK / Fold change vs veh, IBTK / RFU, ESF1 / Fold change vs veh, ESF1 / Fold change vs veh, TMEM50B / RFU, TAOK1 / Fold change vs veh, TAOK1 / RFU, ACBD3 / Fold change vs veh, ACBD3 / RFU, TMA16 / Fold change vs veh, TMA16 / RFU, RWDD3 / Fold change vs veh, RWDD3 / RFU, BCAT1 / Fold change vs veh, BCAT1 / RFU, EDEM3 / Fold change vs veh, EDEM3 / RFU, TMEM33 / Fold change vs veh, TMEM33 / RFU, WDR75 / Fold change vs veh, WDR75 / RFU, AHCTF1 / Fold change vs veh, AHCTF1 / RFU, TFRC / Fold change vs veh, TFRC / RFU, ZDHHC17 / Fold change vs veh, ZDHHC17 / RFU, NOM1 / Fold change vs veh, NOM1 / RFU, ARL8B / Fold change vs veh, ARL8B / RFU, ZBTB11 / Fold change vs veh, ZBTB11 / RFU, TAMM41 / Fold change vs veh, TAMM41 / RFU, KIAA1704 /// LOC100996395 / Fold change vs veh, KIAA1704 /// LOC100996395 / RFU, ING1 / Fold change vs veh, ING1 / RFU, TRMT61B / Fold change vs veh, TRMT61B / RFU, FUBP3 / Fold change vs veh, FUBP3 / RFU, TP53 / Fold change vs veh, TP53 / RFU, TNKS2 / Fold change vs veh, TNKS2 / RFU, ZFP14 / Fold change vs veh, ZFP14 / RFU, ACTR2 / Fold change vs veh, ACTR2 / RFU, PPP3R1 / Fold change vs veh, PPP3R1 / RFU, PIK3R1 / Fold change vs veh, PIK3R1 / RFU, HNRNPA1 / Fold change vs veh, HNRNPA1 / RFU, RNF170 / Fold change vs veh, RNF170 / RFU, ZNF28 / Fold change vs veh, ZNF28 / RFU, RNGTT / Fold change vs veh, RNGTT / RFU, OGT / Fold change vs veh, OGT / RFU, BRD1 / Fold change vs veh, BRD1 / RFU, MARS / Fold change vs veh, MARS / RFU, ZNF655 / Fold change vs veh, ZNF655 / RFU, FAHD1 / Fold change vs veh, FAHD1 / RFU, BDP1 / Fold change vs veh, BDP1 / RFU, LRRCC1 / Fold change vs veh, LRRCC1 / RFU, ARID1A / Fold change vs veh, ARID1A / RFU, ZNF146 / Fold change vs veh, ZNF146 / RFU, ZNF330 / Fold change vs veh, ZNF330 / RFU, GPN3 / Fold change vs veh, GPN3 / RFU, C9orf123 / Fold change vs veh, C9orf123 / RFU, N4BP2L2 / Fold change vs veh, N4BP2L2 / RFU, ARFIP1 / Fold change vs veh, ARFIP1 / RFU, FAM179B / Fold change vs veh, FAM179B / RFU, BCL10 / Fold change vs veh, BCL10 / RFU, UHRF1BP1L / Fold change vs veh, UHRF1BP1L / RFU, BET1 / Fold change vs veh, BET1 / RFU, CNOT2 / Fold change vs veh, CNOT2 / RFU, ZNF268 / Fold change vs veh, ZNF268 / Fold change vs veh, ZNF507 / RFU, DGCR2 / Fold change vs veh, DGCR2 / RFU, WDSUB1 / Fold change vs veh, WDSUB1 / Fold change vs veh, HSP90B1 /// MIR3652 / RFU, ADSS / Fold change vs veh, ADSS / RFU, GK / Fold change vs veh, GK / RFU, ZNF148 / Fold change vs veh, ZNF148 / RFU, TAF9 / Fold change vs veh, TAF9 / RFU, SLC1A5 / Fold change vs veh, SLC1A5 / RFU, SLMO2 / Fold change vs veh, SLMO2 / RFU, ABCC4 / Fold change vs veh, ABCC4 / RFU, LOC101060439 /// RAP1B / Fold change vs veh, LOC101060439 /// RAP1B / RFU, RFX7 / Fold change vs veh, RFX7 / RFU, GTPBP10 / Fold change vs veh, GTPBP10 / RFU, CNEP1R1 / Fold change vs veh, CNEP1R1 / RFU, BIVM-ERCC5 /// ERCC5 / Fold change vs veh, BIVM-ERCC5 /// ERCC5 / RFU, ILF3 / Fold change vs veh, ILF3 / RFU 11762660_at / Fold change /veh 11762660_at / RFU VCAN (11757783_s_at) / Fold change /veh VCAN (11757783_s_at) / RFU DDX43 (11728927_at) / Fold change /veh DDX43 (11728927_at) / RFU KRT8 (11758188_x_at) / Fold change /veh KRT8 (11758188_x_at) / RFU NKD1 (11759106_at) / Fold change /veh NKD1 (11759106_at) / RFU SRD5A1 (11742802_a_at) / Fold change /veh SRD5A1 (11742802_a_at) / RFU TPSAB1 /// TPSB2 (11721975_s_at) / Fold change /veh TPSAB1 /// TPSB2 (11721975_s_at) / RFU GSTM3 (11746129_a_at) / Fold change /veh GSTM3 (11746129_a_at) / RFU IL23R (11737362_x_at) / Fold change /veh IL23R (11737362_x_at) / RFU TMEM51 (11727254_a_at) / Fold change /veh TMEM51 (11727254_a_at) / RFU PIWIL2 (11732686_x_at) / Fold change /veh PIWIL2 (11732686_x_at) / RFU ORM1 (11744905_x_at) / Fold change /veh ORM1 (11744905_x_at) / RFU CCDC152 (11743942_at) / Fold change /veh CCDC152 (11743942_at) / RFU ECM1 (11717891_a_at) / Fold change /veh ECM1 (11717891_a_at) / RFU IL23R (11748794_a_at) / Fold change /veh IL23R (11748794_a_at) / RFU TNFAIP8L3 (11732012_x_at) / Fold change /veh TNFAIP8L3 (11732012_x_at) / RFU MBOAT4 (11741988_at) / Fold change /veh MBOAT4 (11741988_at) / RFU 11764193_at / Fold change /veh 11764193_at / RFU TMEM53 (11763286_at) / Fold change /veh TMEM53 (11763286_at) / RFU MAGEB2 (11727129_at) / Fold change /veh MAGEB2 (11727129_at) / RFU TMEM200A (11744735_a_at) / Fold change /veh TMEM200A (11744735_a_at) / RFU CCDC152 (11751479_a_at) / Fold change /veh CCDC152 (11751479_a_at) / RFU FAM211A (11726209_a_at) / Fold change /veh FAM211A (11726209_a_at) / RFU RGS16 (11746705_a_at) / Fold change /veh RGS16 (11746705_a_at) / RFU VCAN (11755009_s_at) / Fold change /veh VCAN (11755009_s_at) / RFU RHOB (11743442_s_at) / Fold change /veh RHOB (11743442_s_at) / RFU RGS16 (11720943_a_at) / Fold change /veh RGS16 (11720943_a_at) / RFU RGS16 (11720944_at) / Fold change /veh RGS16 (11720944_at) / RFU, VPS4B / Fold change vs veh, VPS4B / RFU, CREB1 / Fold change vs veh, CREB1 / RFU, DNAJC13 / Fold change vs veh, DNAJC13 / RFU, GNAQ / Fold change vs veh, GNAQ / RFU, CDK5R1 / Fold change vs veh, CDK5R1 / RFU, ZRANB3 / Fold change vs veh, ZRANB3 / RFU, CUL4A / Fold change vs veh, CUL4A / RFU, CCNY / Fold change vs veh, CCNY / RFU, UFL1 / Fold change vs veh, UFL1 / RFU, COG3 / Fold change vs veh, COG3 / RFU, DIAPH2 / Fold change vs veh, DIAPH2 / RFU, SKA2 / Fold change vs veh, SKA2 / RFU, AFF3 / Fold change vs veh, AFF3 / RFU, LMF1 / Fold change vs veh, LMF1 / RFU, IPO11 / Fold change vs veh, IPO11 / RFU, DFFB / Fold change vs veh, DFFB / RFU, FOXP1 / Fold change vs veh, FOXP1 / RFU, CARD8 / Fold change vs veh, CARD8 / RFU, STRN3 / Fold change vs veh, STRN3 / RFU, ADK / Fold change vs veh, ADK / RFU, RASSF2 / Fold change vs veh, RASSF2 / RFU, WIPF1 / Fold change vs veh, WIPF1 / RFU, LARP1B / Fold change vs veh, LARP1B / RFU, RASA1 / Fold change vs veh, RASA1 / RFU, RB1 / Fold change vs veh, RB1 / RFU, PPFIA1 / Fold change vs veh, PPFIA1 / RFU, MAT2A / Fold change vs veh, MAT2A / RFU, CCT5 / Fold change vs veh, CCT5 / RFU, WDR92 / Fold change vs veh, WDR92 / RFU, CUX1 / Fold change vs veh, CUX1 / RFU, TTC7A / Fold change vs veh, TTC7A / RFU, TMEM135 / Fold change vs veh, TMEM135 / RFU, DEPTOR / Fold change vs veh, DEPTOR / RFU, CPM / Fold change vs veh, CPM / RFU, DNAJB6 / Fold change vs veh, DNAJB6 / RFU, CACNA2D3 / Fold change vs veh, CACNA2D3 / RFU, DTX4 / Fold change vs veh, DTX4 / RFU, TFCP2 / Fold change vs veh, TFCP2 / RFU, GMCL1 /// GMCL1P1 / Fold change vs veh, GMCL1 /// GMCL1P1 / RFU, AEBP2 / Fold change vs veh, AEBP2 / RFU, SNHG1 /// SNORD22 /// SNORD25 /// SNORD26 /// SNORD27 /// SNORD28 /// SNORD29 /// SNORD31 / Fold change vs veh, SNHG1 /// SNORD22 /// SNORD25 /// SNORD26 /// SNORD27 /// SNORD28 /// SNORD29 /// SNORD31 / Fold change (Aza/veh), C12orf56 (ProbeSet 11735607_a_at) / Fold change (ACY-1035/veh), C12orf56 (ProbeSet 11735607_a_at) / Fold change (Aza/veh), FGFR1OP (ProbeSet 11751329_s_at) / Fold change (ACY-1035/veh), FGFR1OP (ProbeSet 11751329_s_at) / Fold change (Aza/veh), VPS36 (ProbeSet 11739960_a_at) / Fold change (ACY-1035/veh), VPS36 (ProbeSet 11739960_a_at) / RFU SYPL1 (11715823_x_at) / Fold change /veh SYPL1 (11715823_x_at) / RFU IGFBP7 (11715501_s_at) / Fold change /veh IGFBP7 (11715501_s_at) / RFU REEP3 (11722064_at) / Fold change /veh REEP3 (11722064_at) / RFU IGLL1 (11728026_x_at) / Fold change /veh IGLL1 (11728026_x_at): dose or concentration left out as unconfirmed
Conditions: MV-4-11 cells, 48 hours

## Nc1ccc(-c2cccs2)cc1NC(=O)c1ccc2c(c1)cc(C1CC1)n2CCN1CCOCC1 [ACY-1035]
  Fold change /veh ORM1 (11744905_x_at): 1.11
